The source of these data is paper PMC11930985 (Nature Communications, 2025).

One data set has as its system healthy male subjects. Further details: method as in Protocol BGBC001. Particulars: ref Protocol BGBC001, cited from earlier work.
The next data set concerns Flt1. Set-up: method as in Investigator's Brochure (IB) version 5.0. The conditions noted are these: ref Investigator's Brochure (IB) version 5.0; cited from earlier work.
In a further data set the target is Flt4. Set-up: method as in Investigator's Brochure (IB) version 5.0. The conditions noted are these: ref Investigator's Brochure (IB) version 5.0; cited from earlier work.
The subject of a further data set is AML cell lines. Set-up: method as in Investigator's Brochure (IB) version 5.0. Particulars: ref Investigator's Brochure (IB) version 5.0, cited from earlier work.
The next data set has as its target T1, pAXL (Homo sapiens, UniProt P30530).
T1 construct: AML blasts were identified within the peripheral blood mononuclear cell population by CyTOF; endogenous in cells
T1 sequence (P30530 26-894): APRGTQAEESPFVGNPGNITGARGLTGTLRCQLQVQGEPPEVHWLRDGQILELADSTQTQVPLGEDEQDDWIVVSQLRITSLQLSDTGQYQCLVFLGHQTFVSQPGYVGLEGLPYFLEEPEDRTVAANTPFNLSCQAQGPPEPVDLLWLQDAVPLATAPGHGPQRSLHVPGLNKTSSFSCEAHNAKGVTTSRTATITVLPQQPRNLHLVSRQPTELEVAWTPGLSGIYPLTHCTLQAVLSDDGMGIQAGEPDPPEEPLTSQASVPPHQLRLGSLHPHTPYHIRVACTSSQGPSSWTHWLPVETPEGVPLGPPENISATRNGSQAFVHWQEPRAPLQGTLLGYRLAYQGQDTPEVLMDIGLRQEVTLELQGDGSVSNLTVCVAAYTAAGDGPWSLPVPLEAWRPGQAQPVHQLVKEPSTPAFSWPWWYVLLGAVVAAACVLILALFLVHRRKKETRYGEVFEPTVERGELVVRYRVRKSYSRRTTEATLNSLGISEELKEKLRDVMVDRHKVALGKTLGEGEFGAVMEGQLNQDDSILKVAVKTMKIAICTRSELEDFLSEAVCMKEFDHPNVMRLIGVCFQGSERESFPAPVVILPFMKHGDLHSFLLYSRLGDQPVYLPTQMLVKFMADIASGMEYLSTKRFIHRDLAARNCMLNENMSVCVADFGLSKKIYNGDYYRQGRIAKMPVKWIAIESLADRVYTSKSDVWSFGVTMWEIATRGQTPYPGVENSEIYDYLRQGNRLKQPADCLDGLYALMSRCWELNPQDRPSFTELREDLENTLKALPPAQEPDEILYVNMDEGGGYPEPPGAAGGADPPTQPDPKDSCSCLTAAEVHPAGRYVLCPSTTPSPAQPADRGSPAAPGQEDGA
Description: CyTOF maximal pAXL inhibition in AML blasts vs bemcentinib concentration. The data set is classed as in vivo. The source says: Pharmacodynamic endpoints included the measurement of inhibition of pAXL, pERK, pAKT, pS6 and pSTAT1/3/5 in blast cells (defined as cells with abnormal surface marker expression as compared to healthy donor peripheral blood mononuclear cells and undefined/immature myeloid cells (defined as cells carrying myeloid markers but lacking distinguishing terminal differentiation markers). Mass cytometry time of flight (CyTOF) was used for the determination of the pharmacodynamic markers using a previously validated and tested panel of mass-tagged antibodies[39],[40]. The antibodies in the panel are listed in Supplementary Table 5. Briefly, fixed leukocytes from peripheral blood were barcoded using a 20-plex metal barcoding kit (Standard Biotools, Cell-ID 201060) according to manufacturer’s protocol, allowing all the samples from a single individual to be stained and analysed in parallel. All analysis runs included barcoded peripheral blood mononuclear cells (PBMCs) from at least one healthy donor and an identical barcoded reference sample (mix of PBMCs from six healthy donors). Barcoded cells (approx. 6 × 10^6) were treated with FC receptor block (Octagam, 1:1000 (Octapharma) in MaxPar cell staining buffer (CSB, Standard Biotools 201068), 15 min, room temperature) and treated with heparin (100 IU/mL in CSB, 20 min) to reduce non-specific staining artefacts. The sample was then stained with an optimised mixture of mass-tagged surface antibodies in a total staining volume of 600 μL (30 min, room temperature). Subsequently, the sample was permeabilized with cold (-20 °C) 100 % methanol (15 min, on ice), re-treated with heparin, and stained with a panel of intracellular mass-tagged antibodies (as described above). DNA was labelled with iridium-191/193 by incubation in 0.1 nM Ir-nucleic acid intercalator (Standard Biotools 201192) diluted in MaxPar PBS (Standard biotools 201058) containing 4% PFA overnight at 4 °C. […]
For each population, marker, and sample, the 95th percentile of the non-transformed expression values was calculated. […]

Another data set deals with hERG channel. Set-up: method as in Investigator's Brochure (IB) version 5.0. The conditions noted are these: ref Investigator's Brochure (IB) version 5.0; cited from earlier work.

The structures appear in SMILES notation. “And” between values parts separate entries of the source, which are not always exact repeats. Equal entries are not always repeated. Where two headings read alike, the source gives them in different places.

On to `Nc1nc(Nc2ccc3c(c2)CC[C@@H](N2CCCC2)CC3)nn1-c1cc2c(nn1)-c1ccccc1CCC2` [Bemcentinib], for which, in the data set with healthy male subjects (50 mg, 4 fasted, 1 fed), the “Non-Cardiac Chest Pain, Maximum Grade (CTCAE version 4.0)” value is reported as “One”. Besides, the “Orthostatic hypotension, Maximum Grade (CTCAE version 4.0)” value in the data set with healthy male subjects (100 mg, 4 fasted, 2 fed) is on record as “One”. In addition, the “Abdominal Distension x 2, Maximum Grade (CTCAE version 4.0)” value in the data set on healthy male subjects (150 mg, 4 fasted, 1 fed) is “One”. The “Diarrhoea, Maximum Grade (CTCAE version 4.0)” value (shortened to “Diarrhoea, Maximum Grade”) with healthy male subjects (400 mg, 4 fasted, 2 fed) is “One”. Besides, in the data set on healthy male subjects (600 mg, 4 fasted), the “Diarrhoea, Maximum Grade” value is “One”; the “Flatulence, Maximum Grade (CTCAE version 4.0)” value is given as “One”; the “Nausea x 2, Maximum Grade (CTCAE version 4.0)” value is reported as “One”. Also, the “Nausea, Maximum Grade (CTCAE version 4.0)” value with healthy male subjects (1000 mg, 4 fasted) is on record as “One”. For the same compound, in the data set on healthy male subjects (1500 mg, 4 fasted), the “Diarrhoea, Maximum Grade” value is “One”; the “Dizziness, Maximum Grade (CTCAE version 4.0)” value was “One”; the “Headache, Maximum Grade (CTCAE version 4.0)” value was “One”; the “Nausea, Maximum Grade (CTCAE version 4.0)” value was “Two”. The “Vomiting, Maximum Grade (CTCAE version 4.0)” value with healthy male subjects (1500 mg, 4 fasted) is recorded as “Two”. In the data set on healthy male subjects (single dose 50-1500 mg), the “Serious adverse events (SAE)” value is “No serious adverse events”. Also, in the data set on Flt1, the IC50 was 40 nM. Also, on Flt4, the Kd was 460 nM. For the same compound, the “Effect when administered with cytarabine (Ara-C)” value with AML cell lines (preliminary studies) was “at least additive”. Besides, the “Effect of exposure in AML cell lines” value in the data set with AML cell lines (with G1 arrest, reduced phosphorylated axl and ERK) is recorded as “exposure-induced differentiation”. In addition, at pAXL (Figure 4, individual patients (Pt 1-13)), the “Maximum inhibition (percent) pAXL(Y779)” value is 14.7% and 1.3% and 25.7% and 0.4% and 26.3% and 2.9% and 13.4% and 0% and 16.1% and 15.5% and 11.4% and 7%. Also, on pAXL (peripheral blood, DE cohort), the “Plasma concentrations at which inhibition of pAXL was seen” value is given as 45–347 ng/mL and the “Time to intracellular phospho-signaling changes vs pre-treatment” value was at most 4 h. In addition, the IC50 in the data set on hERG channel was 530 nM.

As a reminder, the IC50 is the concentration that gives 50% inhibition. The term Kd denotes a measure of binding affinity in units of concentration.
